Columns and labels:
JAK3 = target: T1, JAK3 (Homo sapiens, UniProt P52333); assay: JAK3 Inhibition Assay; format: biochemical; settings: 1 μM poly(Glu)4Tyr, 5 μM ATP, 1 nM JAK3, 25° C.; read-out: JAK3 enzyme inhibition data (Ki)
T1 sequence (P52333 1-1124): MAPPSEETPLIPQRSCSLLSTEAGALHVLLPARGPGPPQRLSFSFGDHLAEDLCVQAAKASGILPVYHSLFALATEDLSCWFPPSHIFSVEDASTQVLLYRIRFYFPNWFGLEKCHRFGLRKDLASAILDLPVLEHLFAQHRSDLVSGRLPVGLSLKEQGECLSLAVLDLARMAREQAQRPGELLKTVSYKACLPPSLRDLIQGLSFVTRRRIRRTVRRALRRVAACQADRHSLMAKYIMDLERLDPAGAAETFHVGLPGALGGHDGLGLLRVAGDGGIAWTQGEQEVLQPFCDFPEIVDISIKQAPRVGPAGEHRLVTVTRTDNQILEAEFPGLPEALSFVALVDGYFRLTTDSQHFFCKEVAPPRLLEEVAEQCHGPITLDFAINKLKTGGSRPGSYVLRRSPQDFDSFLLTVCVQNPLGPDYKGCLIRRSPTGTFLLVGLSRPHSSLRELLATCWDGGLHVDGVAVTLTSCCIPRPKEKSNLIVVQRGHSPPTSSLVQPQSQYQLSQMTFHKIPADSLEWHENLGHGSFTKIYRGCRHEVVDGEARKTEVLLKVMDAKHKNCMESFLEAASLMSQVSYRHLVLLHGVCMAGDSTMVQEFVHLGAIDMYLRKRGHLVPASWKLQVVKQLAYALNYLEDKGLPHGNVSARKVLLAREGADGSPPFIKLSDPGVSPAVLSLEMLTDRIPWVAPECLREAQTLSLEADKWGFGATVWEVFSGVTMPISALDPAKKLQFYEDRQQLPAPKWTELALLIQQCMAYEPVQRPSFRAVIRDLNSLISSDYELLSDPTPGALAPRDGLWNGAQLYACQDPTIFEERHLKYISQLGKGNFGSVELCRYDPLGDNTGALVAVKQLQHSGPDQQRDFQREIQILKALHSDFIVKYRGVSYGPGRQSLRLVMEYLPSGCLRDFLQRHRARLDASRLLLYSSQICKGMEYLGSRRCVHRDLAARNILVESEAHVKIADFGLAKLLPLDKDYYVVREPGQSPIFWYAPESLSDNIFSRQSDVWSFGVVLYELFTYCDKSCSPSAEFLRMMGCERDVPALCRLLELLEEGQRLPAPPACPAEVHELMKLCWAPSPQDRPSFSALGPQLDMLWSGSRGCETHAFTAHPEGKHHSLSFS
Outline: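 Radiometric JAK3 (1 nM) reaction with 5 μM [33P]ATP and 1 μM poly(Glu)4Tyr in HEPES pH 7.4 buffer, run for 20 min at 25 °C. Reactions were stopped with TCA and filter-captured, and 33P incorporation was counted; values reported as Ki.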

JAK-2 enzyme = JAK-2 enzyme (Homo sapiens, UniProt O60674); assay: JAK2 Inhibition Assay; format: biochemical; settings: 15 μM poly(Glu)4Tyr, 12 μM ATP, 25° C.
Outline: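 JAK2 kinase in HEPES pH 7.4 buffer with MgCl2, DTT, NaCl and BSA; final 15 μM poly(Glu)4Tyr and 12 μM [33P]ATP. Enzyme added to start, 20 min at 25 °C, TCA stop, filter capture and scintillation count of 33P incorporation; Ki values.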

Chain of JAK-2 enzyme (O60674 whole entry, species assumed): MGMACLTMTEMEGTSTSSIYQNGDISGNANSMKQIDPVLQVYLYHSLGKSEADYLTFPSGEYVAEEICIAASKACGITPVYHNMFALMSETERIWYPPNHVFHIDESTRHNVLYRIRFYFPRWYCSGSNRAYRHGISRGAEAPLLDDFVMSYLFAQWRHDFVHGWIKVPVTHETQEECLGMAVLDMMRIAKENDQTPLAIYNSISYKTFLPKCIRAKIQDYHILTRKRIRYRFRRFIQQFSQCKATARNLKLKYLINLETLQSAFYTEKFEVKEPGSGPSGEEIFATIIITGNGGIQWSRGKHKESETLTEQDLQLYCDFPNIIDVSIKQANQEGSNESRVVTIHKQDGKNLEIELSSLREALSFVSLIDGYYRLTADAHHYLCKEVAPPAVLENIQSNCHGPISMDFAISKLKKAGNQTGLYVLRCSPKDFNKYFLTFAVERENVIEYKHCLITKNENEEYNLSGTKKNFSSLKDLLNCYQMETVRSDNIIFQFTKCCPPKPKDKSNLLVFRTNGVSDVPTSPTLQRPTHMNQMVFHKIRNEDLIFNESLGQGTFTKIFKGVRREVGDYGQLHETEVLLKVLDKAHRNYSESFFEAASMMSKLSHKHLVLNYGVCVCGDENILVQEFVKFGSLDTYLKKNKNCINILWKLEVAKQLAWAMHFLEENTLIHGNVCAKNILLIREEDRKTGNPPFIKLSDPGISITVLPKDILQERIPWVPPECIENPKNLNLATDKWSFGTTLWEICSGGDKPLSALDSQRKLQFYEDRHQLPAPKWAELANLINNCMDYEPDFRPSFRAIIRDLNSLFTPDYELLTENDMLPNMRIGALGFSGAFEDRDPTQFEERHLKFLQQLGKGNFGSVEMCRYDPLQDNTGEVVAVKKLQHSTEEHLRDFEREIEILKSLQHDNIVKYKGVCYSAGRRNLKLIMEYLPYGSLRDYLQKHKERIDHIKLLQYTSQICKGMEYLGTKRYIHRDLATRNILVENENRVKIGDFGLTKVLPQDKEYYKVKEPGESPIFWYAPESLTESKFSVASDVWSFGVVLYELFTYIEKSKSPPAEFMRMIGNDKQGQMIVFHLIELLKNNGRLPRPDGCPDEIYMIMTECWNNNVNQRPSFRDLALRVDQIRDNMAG

SMILES	Ki (JAK3) [nM]	Ki (JAK-2 enzyme) [nM]
CCCCN(CCC#N)C(=O)c1cc(-c2ncnc3[nH]ccc23)c[nH]1 [Compound 22]	< 100	< 100
Cc1c[nH]c2ncnc(-c3c[nH]c(C(=O)N(C)CCc4ccccc4)c3)c12 [Compound 203]	100 to 500	< 100
CC(C)OCCNC(=O)C(C)n1cc(-c2ncnc3[nH]ccc23)cn1 (stereo not shown) [Compound 85]	500 to 5000	500 to 5000
Cn1cc(-c2ncnc3[nH]ccc23)cc1C(=O)N(CCC(F)(F)F)CC1CC1 [Compound 225]	< 100	< 100
CC(C(=O)N1CCCC1)n1cc(-c2ncnc3[nH]ccc23)cn1 (stereo not shown) [Compound 87]	100 to 500	100 to 500
CC(C)N(CCC(F)(F)F)C(=O)c1ccc(-c2ncnc3[nH]ccc23)o1 [Compound 210]	< 100	< 100
O=C(Nc1nc(-c2ncnc3[nH]ccc23)cs1)C1CCOCC1 [Compound 61]	< 100	< 100
CC(=O)NCCC(=O)Nc1nc(-c2ncnc3[nH]ccc23)cs1 [Compound 174]	100 to 500	< 100
CC(C)CN(CC(C)C)C(=O)c1cc(-c2ncnc3[nH]ccc23)c[nH]1 [Compound 28]	100 to 500	< 100
CN(CC(F)(F)F)C(=O)c1ccc(-c2ncnc3[nH]ccc23)o1 [Compound 127]	< 100	< 100
N#CCCN(CC1CC1)C(=O)c1cc(-c2ncnc3[nH]ccc23)c[nH]1 [Compound 115]	< 100	< 100
CCCCC(CC)n1cc(-c2ncnc3[nH]ccc23)cn1 (stereo not shown) [Compound 92]	< 100	< 100
COC(=O)N1CCC(C(=O)Nc2nc(-c3ncnc4[nH]ccc34)cs2)CC1 [Compound 171]	< 100	< 100
CCCN(CCC)C(=O)c1cc(-c2ncnc3[nH]ccc23)c[nH]1 [Compound 26]	< 100	< 100
CCC(O)CNC(=O)C(C)n1cc(-c2ncnc3[nH]ccc23)cn1 (stereo not shown) [Compound 83]	100 to 500	500 to 5000
O=C(CCC(=O)C1CC1)Nc1nc(-c2ncnc3[nH]ccc23)cs1 [Compound 170]	100 to 500	< 100
Cc1c[nH]c2ncnc(-c3c[nH]c(C(=O)N4C(C)C=CC4C)c3)c12 (stereo not shown) [Compound 204]	100 to 500	< 100
O=C(c1coc(-c2ncnc3[nH]ccc23)c1)N(CC1CC1)CC(F)(F)F [Compound 195]	100 to 500	< 100
CCCCCN(C)C(=O)c1cc(-c2ncnc3[nH]cc(C)c23)c[nH]1 [Compound 205]	100 to 500	< 100
O=C(c1cc(-c2ncnc3[nH]ccc23)c[nH]1)N1CCC(O)C1 (stereo not shown) [Compound 45]	500 to 5000	500 to 5000

Source: US20090227607A1, “DEAZAPURINES USEFUL AS INHIBITORS OF JANUS KINASES” (priority 2006, published 2009)
